From US8759481B2, “Peptide vaccines for cancers expressing tumor-associated antigens” (Oncotherapy Science, Inc., priority 2007, dated 2014)

What was measured:
Assay type in all cases: cell-based, human
[1] = system: peptide-pulsed A24-LCL cells; test: IFN-gamma ELISPOT assay (positive wells); details: HLA-A*2402, 9-mer peptides derived from INHBB; positive/total wells
How it was run: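 PBMC-derived DCs from HLA-A*2402 and/or A*0201 donors, pulsed with 20 micro g/ml peptide plus 3 micro g/ml beta 2-microglobulin, stimulated autologous CD8+ T cells three times (days 0, 7, 14). On day 21, responders were tested against peptide-pulsed A24-LCL or T2 cells by IFN-gamma ELISPOT. Values are reported as positive wells/wells tested; CTL lines confirmed by ELISA.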

[2] = system: peptide-pulsed T2 cells; test: CTL line establishment, IFN-gamma ELISA; details: HLA-A*0201, 9-mer peptides derived from INHBB; CTL lines/positive wells
How it was run: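 CTLs expanded with MMC-inactivated B-lymphoblastoid lines, 40 ng/ml anti-CD3 and IL-2 (120 IU/ml day 1, then 30 IU/ml on days 5, 8, 11). Peptide-pulsed T2 or A24-LCL stimulators (1×10^4/well) incubated with cultured wells or limiting-dilution clones as responders; IFN-gamma detected by ELISPOT (positive wells) and ELISA (established CTL lines).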

[3] = system: peptide-pulsed T2 cells; test: IFN-gamma ELISPOT assay (positive wells); details: HLA-A*0201, 9-mer peptides derived from INHBB; positive/total wells
How it was run: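 CD8+ T cells from HLA-A*2402 and/or HLA-A*0201 donors were stimulated 1:20 with autologous monocyte-derived DCs pulsed with 20 µg/ml peptide plus β2-microglobulin, in IL-7, with IL-2 added, restimulated on days 7 and 14. On day 21, IFN-γ ELISPOT against peptide-pulsed T2 or A24-LCL cells (1×10^4/well) scored wells as positive, with CTL lines confirmed by ELISA.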

[4] = system: CD8+ T cells (HLA-A*2402 donors); test: In vitro CTL induction with peptide-pulsed DCs (positive donor number); details: HLA-A*2402, 9-mer peptides derived from INHBB; positive/total donors
How it was run: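 Autologous CD8+ T cells from HLA-A*2402 and/or A*0201 donors stimulated with MMC-inactivated monocyte-derived DCs pulsed with 20 μg/ml peptide, at 1:20 DC:T with IL-7, then IL-2 (20 IU/ml); restimulated days 7 and 14. CTL tested day 21 on peptide-pulsed A24-LCL or T2 cells; reported as positive/total donors.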

How did the positive well number [1] turn out when VQCDSCQEL was run?
Its positive well number is 0/8.

And the “positive CTL line” value [2]?
The value was 0/1.

And the positive well number [3]?
Its positive well number is 1/8.

And the positive donor number [4]?
The positive donor number was 0/1.
